Measurements as given in patent US11034650B2, “Compounds useful for treating a Mannheimia haemolytica or Histophilus somni infection” (Intervet Inc., priority 2016, dated 2021).
Converted amounts (≈) assume the structure as drawn.

Tests used:
Format in all cases: cell-based
[1] = system: Mannheimia haemolytica MH 6357 (M7/2, reference strain, cattle infection strain); assay: MIC, broth-microdilution (CLSI VET01-A4), strain MH 6357; details: Mannheimia haemolytica strain MH 6357, broth-microdilution; unit assumed
Protocol: (§1) For example, representative compounds were tested against ***, Mannheimia haemolytica and Pasteurella multocida, using the conventional broth-dilution assay.
(§2) The Minimum inhibitory concentrations (MIC) of compounds according to the invention for a number of veterinary bacterial pathogens were determined by the broth-microdilution method according to CLSI document VET01-A4.
(§3) Microdilution trays containing a doubling dilution series of the test compound were used for the tests. The MIC results were interpreted according to the CLSI documents VET01-S3. The lowest concentration of compound at which no visible growth (i.e. no turbidity) detected by the unaided eye was recorded as the MIC.

[2] = system: Mannheimia haemolytica MH 6374 (ATCC 33396, reference strain); assay: MIC, broth-microdilution (CLSI VET01-A4), strain MH 6374; details: Mannheimia haemolytica strain MH 6374, broth-microdilution; unit assumed
Protocol: as §1, §2, §3

[3] = system: Mannheimia haemolytica MH 10720 (154, BRD field isolate); assay: MIC, broth-microdilution (CLSI VET01-A4), strain MH 10720; details: Mannheimia haemolytica strain MH 10720, broth-microdilution; unit assumed
Protocol: as §1, §2, §3

[4] = system: Mannheimia haemolytica MH 12587 (1071, BRD field isolate, macrolide-resistance: erm+, E+); assay: MIC, broth-microdilution (CLSI VET01-A4), strain MH 12587; details: Mannheimia haemolytica strain MH 12587, broth-microdilution; unit assumed
Protocol: as §1, §2, §3

[5] = system: Mannheimia haemolytica MH 13065 (XB0446-6003.9, BRD field isolate); assay: MIC, broth-microdilution (CLSI VET01-A4), strain MH 13065; details: Mannheimia haemolytica strain MH 13065, broth-microdilution; unit assumed
Protocol: as §1, §2, §3

[6] = system: Mannheimia haemolytica MH 13093 (XB0472-6014.1, BRD field isolate); assay: MIC, broth-microdilution (CLSI VET01-A4), strain MH 13093; details: Mannheimia haemolytica strain MH 13093, broth-microdilution; unit assumed
Protocol: as §1, §2, §3

[7] = system: Pasteurella multocida PM 6267 (P 2225 (L386), reference strain, mouse infection strain); assay: MIC, broth-microdilution (CLSI VET01-A4), strain PM 6267; details: Pasteurella multocida strain PM 6267, broth-microdilution; unit assumed
Protocol: as §1, §2, §3

[8] = system: Pasteurella multocida PM 10775 (080130003051, BRD field isolate); assay: MIC, broth-microdilution (CLSI VET01-A4), strain PM 10775; details: Pasteurella multocida strain PM 10775, broth-microdilution; unit assumed
Protocol: as §1, §2, §3

[9] = system: Pasteurella multocida PM 12080 (IV102277-0093, BRD field isolate); assay: MIC, broth-microdilution (CLSI VET01-A4), strain PM 12080; details: Pasteurella multocida strain PM 12080, broth-microdilution; unit assumed
Protocol: as §1, §2, §3

Structure (SMILES) | MIC PM 6267 [7] | MIC PM 10775 [8] | MIC PM 12080 [9] | MIC MH 6357 [1] | MIC MH 6374 [2] | MIC MH 10720 [3] | MIC MH 12587 [4] | MIC MH 13065 [5] | MIC MH 13093 [6]
O=C(N[C@@H](CO)C(=O)NO)c1ccc(C#Cc2ccc(CN3CCN(c4ccccc4)CC3)cc2)cc1 [Compound 81] | ≤ 0.1 µg/mL | ≤ 0.1 µg/mL | 0.8 µg/mL (≈ 1.6 µM) | 3.1 µg/mL (≈ 6.22 µM) | 3.1 µg/mL (≈ 6.22 µM) | 0.8 µg/mL (≈ 1.6 µM) | 25 µg/mL (≈ 50.1 µM) | 3.1 µg/mL (≈ 6.22 µM) | 6.3 µg/mL (≈ 12.6 µM)
C=CCNCc1ccc(C#Cc2ccc(C(=O)N[C@H](C(=O)NO)C(C)C)cc2)cc1 [Compound 94] | ≤ 0.1 µg/mL | ≤ 0.1 µg/mL | 0.8 µg/mL (≈ 1.97 µM) | 12.5 µg/mL (≈ 30.8 µM) | 0.8 µg/mL (≈ 1.97 µM) | 0.8 µg/mL (≈ 1.97 µM) | 1.6 µg/mL (≈ 3.95 µM) | 0.8 µg/mL (≈ 1.97 µM) | 1.6 µg/mL (≈ 3.95 µM)
CC(C)[C@H](NC(=O)c1ccc(C#Cc2ccc(CNCc3ccc(Cl)cc3)cc2)cc1)C(=O)NO [Compound 106] | 0.2 µg/mL (≈ 0.408 µM) | ≤ 0.1 µg/mL | 0.8 µg/mL (≈ 1.63 µM) | 0.8 µg/mL (≈ 1.63 µM) | 0.8 µg/mL (≈ 1.63 µM) | 0.2 µg/mL (≈ 0.408 µM) | 1.6 µg/mL (≈ 3.27 µM) | 0.8 µg/mL (≈ 1.63 µM) | 1.6 µg/mL (≈ 3.27 µM)
CC(C)[C@H](NC(=O)c1ccc(C#Cc2ccc(CN(C)Cc3ccccc3)cc2)cc1)C(=O)NO [Compound 105] | 0.2 µg/mL (≈ 0.426 µM) | ≤ 0.1 µg/mL | 0.8 µg/mL (≈ 1.7 µM) | 6.3 µg/mL (≈ 13.4 µM) | 3.1 µg/mL (≈ 6.6 µM) | 0.8 µg/mL (≈ 1.7 µM) | 6.3 µg/mL (≈ 13.4 µM) | 3.1 µg/mL (≈ 6.6 µM) | 3.1 µg/mL (≈ 6.6 µM)
CC(C)NCc1ccc(C#Cc2ccc(C(=O)N[C@@H](CO)C(=O)NO)cc2)cc1 [Compound 72] | 1.6 µg/mL (≈ 4.05 µM) | 0.8 µg/mL (≈ 2.02 µM) | 12.5 µg/mL (≈ 31.6 µM) | 12.5 µg/mL (≈ 31.6 µM) | 12.5 µg/mL (≈ 31.6 µM) | 6.3 µg/mL (≈ 15.9 µM) | 25 µg/mL (≈ 63.2 µM) | 12.5 µg/mL (≈ 31.6 µM) | 12.5 µg/mL (≈ 31.6 µM)
O=C(N[C@@H](CO)C(=O)NO)c1ccc(C#Cc2ccc(CN3CCS(=O)(=O)CC3)cc2)cc1 [Compound 78] | ≤ 0.1 µg/mL | ≤ 0.1 µg/mL | 0.8 µg/mL (≈ 1.7 µM) | 6.3 µg/mL (≈ 13.4 µM) | 6.3 µg/mL (≈ 13.4 µM) | 3.1 µg/mL (≈ 6.57 µM) | 12.5 µg/mL (≈ 26.5 µM) | 6.3 µg/mL (≈ 13.4 µM) | 6.3 µg/mL (≈ 13.4 µM)
CC[C@H](C)[C@H](NC(=O)c1ccc(C#Cc2ccc(CNCc3ccncc3)cc2)cc1)C(=O)NO [Compound 132] | ≤ 0.1 µg/mL | ≤ 0.1 µg/mL | 0.4 µg/mL (≈ 0.85 µM) | 1.6 µg/mL (≈ 3.4 µM) | 0.8 µg/mL (≈ 1.7 µM) | 0.2 µg/mL (≈ 0.425 µM) | 0.8 µg/mL (≈ 1.7 µM) | 0.8 µg/mL (≈ 1.7 µM) | 0.8 µg/mL (≈ 1.7 µM)

Now from value to compound, other results behind:

MIC PM 6267 [7] | MIC PM 10775 [8] | MIC PM 12080 [9] | Structure (SMILES) | MIC MH 6357 [1] | MIC MH 6374 [2] | MIC MH 10720 [3] | MIC MH 12587 [4] | MIC MH 13065 [5] | MIC MH 13093 [6]
0.4 µg/mL (≈ 0.977 µM) | 0.2 µg/mL (≈ 0.488 µM) | 3.1 µg/mL (≈ 7.57 µM) | CCN(CC)Cc1ccc(C#Cc2ccc(C(=O)N[C@@H](CO)C(=O)NO)cc2)cc1 [Compound 76] | 12.5 µg/mL (≈ 30.5 µM) | 25 µg/mL (≈ 61.1 µM) | 6.3 µg/mL (≈ 15.4 µM) | 25 µg/mL (≈ 61.1 µM) | 12.5 µg/mL (≈ 30.5 µM) | 25 µg/mL (≈ 61.1 µM)
0.4 µg/mL (≈ 0.918 µM) | 0.2 µg/mL (≈ 0.459 µM) | 1.6 µg/mL (≈ 3.67 µM) | CC[C@H](C)[C@H](NC(=O)c1ccc(C#Cc2ccc(CN(CC)CC)cc2)cc1)C(=O)NO [Compound 118] | 6.3 µg/mL (≈ 14.5 µM) | 12.5 µg/mL (≈ 28.7 µM) | 3.1 µg/mL (≈ 7.12 µM) | 25 µg/mL (≈ 57.4 µM) | 12.5 µg/mL (≈ 28.7 µM) | 12.5 µg/mL (≈ 28.7 µM)
0.4 µg/mL (≈ 0.953 µM) | ≤ 0.1 µg/mL | 0.8 µg/mL (≈ 1.91 µM) | C=CCNCc1ccc(C#Cc2ccc(C(=O)N[C@H](C(=O)NO)[C@@H](C)CC)cc2)cc1 [Compound 113] | 3.1 µg/mL (≈ 7.39 µM) | 0.8 µg/mL (≈ 1.91 µM) | 0.4 µg/mL (≈ 0.953 µM) | 3.1 µg/mL (≈ 7.39 µM) | 1.6 µg/mL (≈ 3.81 µM) | 3.1 µg/mL (≈ 7.39 µM)
≤ 0.1 µg/mL | ≤ 0.1 µg/mL | ≤ 0.1 µg/mL | CC[C@H](C)[C@H](NC(=O)c1ccc(C#Cc2ccc(CN3CCOCC3)cc2)cc1)C(=O)NO [Compound 119] | 1.6 µg/mL (≈ 3.56 µM) | 1.6 µg/mL (≈ 3.56 µM) | 0.4 µg/mL (≈ 0.89 µM) | 3.1 µg/mL (≈ 6.9 µM) | 1.6 µg/mL (≈ 3.56 µM) | 3.1 µg/mL (≈ 6.9 µM)
≤ 0.1 µg/mL | ≤ 0.1 µg/mL | ≤ 0.1 µg/mL | CC[C@H](C)[C@H](NC(=O)c1ccc(C#Cc2ccc(CNCc3nccs3)cc2)cc1)C(=O)NO [Compound 188] | 0.8 µg/mL (≈ 1.68 µM) | 1.6 µg/mL (≈ 3.36 µM) | ≤ 0.1 µg/mL | 3.1 µg/mL (≈ 6.5 µM) | 0.8 µg/mL (≈ 1.68 µM) | 0.8 µg/mL (≈ 1.68 µM)
